The values below come from ChEMBL document CHEMBL1938382, “Fragment-based discovery of indole inhibitors of matrix metalloproteinase-13” (J Med Chem, 2011).

Sequence of 72 kDa type IV collagenase (P08253 whole entry): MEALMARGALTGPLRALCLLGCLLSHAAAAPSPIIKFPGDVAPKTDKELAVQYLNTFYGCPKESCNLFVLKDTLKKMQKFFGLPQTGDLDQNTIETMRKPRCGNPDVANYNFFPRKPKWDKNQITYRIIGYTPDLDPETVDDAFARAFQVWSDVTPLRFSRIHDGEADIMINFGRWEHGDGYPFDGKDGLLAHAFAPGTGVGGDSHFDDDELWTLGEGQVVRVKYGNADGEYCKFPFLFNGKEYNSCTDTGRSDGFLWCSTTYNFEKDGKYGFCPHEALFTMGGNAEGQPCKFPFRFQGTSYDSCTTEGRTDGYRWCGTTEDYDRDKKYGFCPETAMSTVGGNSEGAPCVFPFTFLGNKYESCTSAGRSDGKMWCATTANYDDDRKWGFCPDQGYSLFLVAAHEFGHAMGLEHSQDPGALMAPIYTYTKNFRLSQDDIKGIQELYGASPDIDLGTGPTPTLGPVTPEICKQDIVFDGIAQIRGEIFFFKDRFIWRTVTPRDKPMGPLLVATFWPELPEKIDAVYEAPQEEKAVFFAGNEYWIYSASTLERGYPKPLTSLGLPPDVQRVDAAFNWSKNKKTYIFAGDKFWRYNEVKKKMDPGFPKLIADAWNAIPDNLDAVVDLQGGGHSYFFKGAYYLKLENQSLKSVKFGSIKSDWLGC

The first experiment addresses 72 kDa type IV collagenase (Homo sapiens, UniProt P08253). Briefly: Inhibition of human recombinant MMP2 after 30 mins by fluorimetry.
As to `CCOC(=O)c1cc2cc(-c3cc(C(=O)OC)nn3C)ccc2[nH]1`, the IC50 was 83 µM.

For the compound `CCOC(=O)c1cc2cc(-c3cc(C(=O)NCc4ccncc4)nn3C)ccc2[nH]1`, the IC50 was more than 500 µM.

`CCOC(=O)c1cc2cc(-c3cc(C(=O)NCc4ccncc4)ncc3C)ccc2[nH]1`: the IC50 is more than 20 µM.

On to `CCOC(=O)c1cc2cc(-c3cc(C(=O)NCc4ccc(=O)[nH]c4)nn3C)ccc2[nH]1`, for which the IC50 is more than 24 µM.

Regarding `CCOC(=O)c1cc2cc(-c3ccccc3)ccc2[nH]1`, the IC50 is more than 500 µM.

For `CCOC(=O)c1cc2cc(-c3cc(C(=O)NCc4ccc(CC(=O)O)cc4)nn3C)ccc2[nH]1`, the IC50 was more than 22 µM.

On to `CCOC(=O)c1cc2cc(NS(C)(=O)=O)ccc2[nH]1`, for which the IC50 turned out to be 210 µM.

On to `CCOC(=O)c1cc2cc(-c3ccncc3)ccc2[nH]1`, for which the IC50 was determined as 310 µM.

Regarding `CCNC(=O)c1cc2cc(C(N)=O)ccc2[nH]1`, the IC50 is more than 500 µM.

In the case of `CCOC(=O)c1cc2cc(C(N)=O)ccc2[nH]1`, the concentration for half-maximal inhibition (IC50) stood at 60 µM.

On to `CCOC(=O)c1cc2cc(-c3cncn3C)ccc2[nH]1`, for which the IC50 came to 24 µM.

The target in a further experiment is Matrix metalloproteinase-14 (Homo sapiens, UniProt P50281). Briefly: Inhibition of human recombinant MMP14 after 60 mins by fluorimetry.
In the case of `CCOC(=O)c1cc2cc(-c3cc(C(=O)OC)nn3C)ccc2[nH]1`, the IC50 turned out to be 41 µM.

`CCOC(=O)c1cc2cc(-c3cc(C(=O)NCc4ccncc4)nn3C)ccc2[nH]1`: the IC50 is more than 500 µM.

With `CCOC(=O)c1cc2cc(-c3cc(C(=O)NCc4ccncc4)ncc3C)ccc2[nH]1`, the IC50 is more than 22 µM.

For `CCOC(=O)c1cc2cc(-c3cc(C(=O)NCc4ccc(=O)[nH]c4)nn3C)ccc2[nH]1`, the IC50 was 11 µM.

`CCOC(=O)c1cc2cc(-c3ccccc3)ccc2[nH]1`: the IC50 was more than 500 µM.

On to `CCOC(=O)c1cc2cc(-c3cc(C(=O)NCc4ccc(CC(=O)O)cc4)nn3C)ccc2[nH]1`, for which the IC50 was more than 22 µM.

Regarding `CCOC(=O)c1cc2cc(NS(C)(=O)=O)ccc2[nH]1`, the IC50 is more than 500 µM.

For the compound `CCOC(=O)c1cc2cc(-c3ccncc3)ccc2[nH]1`, the IC50 came out at 225 µM.

As to `CCNC(=O)c1cc2cc(C(N)=O)ccc2[nH]1`, the IC50 was more than 500 µM.

As for `CCOC(=O)c1cc2cc(C(N)=O)ccc2[nH]1`, the IC50 is more than 500 µM.

For the compound `CCOC(=O)c1cc2cc(-c3cncn3C)ccc2[nH]1`, the 50% inhibitory concentration (IC50) was found to be 15 µM.

The next experiment addresses T1, Collagenase 3 (Homo sapiens, UniProt P45452). Briefly: Inhibition of MMP13 after 30 mins by fluorimetry in the presence of 1.25% human serum albumin.
Turning to `CCOC(=O)c1cc2cc(-c3cc(C(=O)NCc4ccncc4)nn3C)ccc2[nH]1`, the IC50 is 0.36 µM.

Consider `CCOC(=O)c1cc2cc(-c3cc(C(=O)NCc4ccncc4)ncc3C)ccc2[nH]1`, for which the IC50 was 0.64 µM.

Regarding `CCOC(=O)c1cc2cc(-c3cc(C(=O)NCc4ccc(=O)[nH]c4)nn3C)ccc2[nH]1`, the IC50 is 0.28 µM.

Consider `CCOC(=O)c1cc2cc(-c3cc(C(=O)NCc4ccc(CC(=O)O)cc4)nn3C)ccc2[nH]1`, for which the IC50 was 0.014 µM.

The next experiment addresses T1, Collagenase 3.
Description: Inhibition of human MMP13 expressed in Escherichia coli after 30 mins by fluorimetry
`CCOC(=O)c1cc2cc(-c3cc(C(=O)OC)nn3C)ccc2[nH]1`: it took 2.4 µM to reach half-maximal inhibition (IC50).

The compound `CCOC(=O)c1cc2cc(-c3cc(C(=O)NCc4ccncc4)nn3C)ccc2[nH]1` yielded an IC50 of 0.09 µM.

For the compound `CCOC(=O)c1cc2cc(-c3cc(C(=O)NCc4ccncc4)ncc3C)ccc2[nH]1`, the IC50 came out at 0.15 µM.

For the compound `CCOC(=O)c1cc2cc(-c3cc(C(=O)NCc4ccc(=O)[nH]c4)nn3C)ccc2[nH]1`, the IC50 worked out at 0.12 µM.

`CCOC(=O)c1cc2cc(-c3ccccc3)ccc2[nH]1` registered an IC50 of more than 500 µM.

In the case of `CCOC(=O)c1cc2cc(NS(C)(=O)=O)ccc2[nH]1`, the IC50 amounted to 97 µM.

In the case of `CCOC(=O)c1cc2cc(-c3ccncc3)ccc2[nH]1`, the IC50 turned out to be 82 µM.

On to `CCNC(=O)c1cc2cc(C(N)=O)ccc2[nH]1`, for which the IC50 was more than 500 µM.

In turn, `CCOC(=O)c1cc2cc(-c3cncn3C)ccc2[nH]1` came in with an IC50 of 2.5 µM.

Usually IC50 stands for the concentration needed to halve the response being measured.
